According to ChEMBL document CHEMBL3232999, “Computer-aided identification of novel 3,5-substituted rhodanine derivatives with activity against Staphylococcus aureus DNA gyrase” (Bioorg Med Chem, 2014):
In brackets after ≈: the same amount, converted by molar mass. Activity calls are given as the source filed them. The rule behind the calls is not given here.

Legend:
[1] = tested on: Staphylococcus aureus; experiment: Antimicrobial activity against methicillin-resistant Staphylococcus aureus ATCC 33592 after 24 hrs by two-fold serial dilution method; assay type: functional; settings: ATCC 33592, 24 h
[2] = tested on: Staphylococcus aureus; experiment: Antimicrobial activity against Staphylococcus aureus ATCC 6538 after 24 hrs by two-fold serial dilution method; assay type: functional; settings: ATCC 6538, 24 h
[3] = tested on: Staphylococcus aureus; experiment: Antimicrobial activity against Staphylococcus aureus ISP 794 after 24 hrs by two-fold serial dilution method; assay type: functional; settings: ISP 794, 24 h
[4] = tested on: Staphylococcus aureus; experiment: Antimicrobial activity against Staphylococcus aureus carolina after 24 hrs by two-fold serial dilution method; assay type: functional
[5] = tested on: Escherichia coli; experiment: Antimicrobial activity against Escherichia coli MG1655 after 24 hrs by two-fold serial dilution method; assay type: functional; settings: MG1655, 24 h
[6] = molecular target: T1, DNA gyrase (Staphylococcus aureus) (UniProt P0A0K8+P20831); experiment: Inhibition of Staphylococcus aureus DNA gyrase-mediated supercoiling of relaxed DNA using N0471S as substrate at 160 to 500 uM after 30 mins by using […] staining-based agarose gel electrophoresis; assay type: protein-complex assay
T1 sequence (P0A0K8 2-644 limits assumed): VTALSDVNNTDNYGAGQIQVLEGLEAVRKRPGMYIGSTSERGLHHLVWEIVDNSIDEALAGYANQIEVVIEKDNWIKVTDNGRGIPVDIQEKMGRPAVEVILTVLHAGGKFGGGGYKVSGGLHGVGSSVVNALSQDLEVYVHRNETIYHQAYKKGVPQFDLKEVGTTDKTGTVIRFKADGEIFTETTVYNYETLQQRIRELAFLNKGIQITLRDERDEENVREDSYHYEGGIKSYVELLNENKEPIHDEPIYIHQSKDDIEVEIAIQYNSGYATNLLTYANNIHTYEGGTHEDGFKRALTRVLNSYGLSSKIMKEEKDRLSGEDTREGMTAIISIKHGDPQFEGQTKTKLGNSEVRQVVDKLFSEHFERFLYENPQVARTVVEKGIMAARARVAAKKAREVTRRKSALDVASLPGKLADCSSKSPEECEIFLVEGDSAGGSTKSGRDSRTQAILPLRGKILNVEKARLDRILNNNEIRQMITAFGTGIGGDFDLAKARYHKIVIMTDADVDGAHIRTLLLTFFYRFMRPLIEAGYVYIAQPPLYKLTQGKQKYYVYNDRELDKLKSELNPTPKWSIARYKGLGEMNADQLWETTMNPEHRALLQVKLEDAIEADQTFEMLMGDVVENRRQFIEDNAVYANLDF
T1 sequence (P20831 whole entry partner): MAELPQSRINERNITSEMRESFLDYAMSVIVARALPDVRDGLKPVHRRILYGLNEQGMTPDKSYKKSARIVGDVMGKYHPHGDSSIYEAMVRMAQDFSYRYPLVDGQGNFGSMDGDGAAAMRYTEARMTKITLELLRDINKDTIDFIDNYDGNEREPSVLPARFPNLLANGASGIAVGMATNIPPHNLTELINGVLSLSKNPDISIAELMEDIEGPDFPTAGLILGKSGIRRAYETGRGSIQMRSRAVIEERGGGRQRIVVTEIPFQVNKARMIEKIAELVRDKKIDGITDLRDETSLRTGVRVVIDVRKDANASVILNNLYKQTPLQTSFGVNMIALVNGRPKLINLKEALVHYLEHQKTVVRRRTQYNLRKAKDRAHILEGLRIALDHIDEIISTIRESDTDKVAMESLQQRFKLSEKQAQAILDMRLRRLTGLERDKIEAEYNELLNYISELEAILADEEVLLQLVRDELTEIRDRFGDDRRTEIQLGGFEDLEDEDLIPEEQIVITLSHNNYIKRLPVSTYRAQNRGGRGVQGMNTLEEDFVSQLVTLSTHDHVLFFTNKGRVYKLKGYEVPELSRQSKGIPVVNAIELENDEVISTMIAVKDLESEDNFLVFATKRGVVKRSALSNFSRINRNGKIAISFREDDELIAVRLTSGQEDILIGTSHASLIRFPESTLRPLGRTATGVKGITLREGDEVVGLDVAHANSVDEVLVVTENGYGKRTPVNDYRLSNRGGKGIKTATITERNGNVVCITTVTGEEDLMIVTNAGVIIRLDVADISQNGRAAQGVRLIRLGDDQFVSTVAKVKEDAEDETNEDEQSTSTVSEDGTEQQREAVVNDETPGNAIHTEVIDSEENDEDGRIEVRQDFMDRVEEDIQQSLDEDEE

[7] = molecular target: T1, DNA gyrase (Staphylococcus aureus); experiment: Inhibition of Staphylococcus aureus DNA gyrase-mediated supercoiling of relaxed DNA using N0471S as substrate at 20 uM after 30 mins by using […] staining-based agarose gel electrophoresis; assay type: protein-complex assay
[8] = tested on: Escherichia coli; experiment: Inhibition of Escherichia coli DNA gyrase-mediated supercoiling of relaxed DNA using N0471S as substrate after 30 mins by using […] staining-based agarose gel electrophoresis
[9] = molecular target: DNA gyrase subunit B (Staphylococcus aureus, UniProt P0A0K8); experiment: Inhibition of Staphylococcus aureus DNA gyrase subunit B ATPase activity assessed as consumption of inorganic phosphate by PNP-based absorbance assay
Chain of DNA gyrase subunit B (P0A0K8 whole entry): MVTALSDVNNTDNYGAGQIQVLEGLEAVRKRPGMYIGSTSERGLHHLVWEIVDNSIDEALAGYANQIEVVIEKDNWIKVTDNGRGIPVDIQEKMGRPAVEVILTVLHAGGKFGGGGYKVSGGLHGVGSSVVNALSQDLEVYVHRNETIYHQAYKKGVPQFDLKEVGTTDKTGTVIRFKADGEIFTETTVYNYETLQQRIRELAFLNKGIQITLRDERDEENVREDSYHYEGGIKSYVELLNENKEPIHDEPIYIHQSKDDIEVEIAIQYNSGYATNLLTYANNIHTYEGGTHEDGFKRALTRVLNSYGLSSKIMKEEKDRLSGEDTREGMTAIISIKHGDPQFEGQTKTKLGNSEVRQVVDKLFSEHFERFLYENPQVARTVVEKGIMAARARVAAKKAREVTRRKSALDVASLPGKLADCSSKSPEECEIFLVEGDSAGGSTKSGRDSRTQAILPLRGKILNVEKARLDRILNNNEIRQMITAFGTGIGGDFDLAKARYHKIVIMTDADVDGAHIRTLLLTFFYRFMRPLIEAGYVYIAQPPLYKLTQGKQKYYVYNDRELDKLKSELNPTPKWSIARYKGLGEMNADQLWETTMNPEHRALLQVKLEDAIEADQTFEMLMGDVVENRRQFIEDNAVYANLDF

[10] = molecular target: DNA gyrase subunit B (Staphylococcus aureus) (UniProt P0A0K8); experiment: Inhibition of Staphylococcus aureus DNA gyrase subunit B ATPase activity assessed as consumption of inorganic phosphate at 30 uM by PNP-based absorbance assay relative to control; values are per cent of control
Chain of DNA gyrase subunit B (Staphylococcus aureus) (P0A0K8 2-644 limits assumed): as the sequence (P0A0K8 2-644 limits assumed) above

[11] = molecular target: DNA gyrase subunit B (Staphylococcus aureus) (UniProt P0A0K8); experiment: Inhibition of Staphylococcus aureus DNA gyrase subunit B ATPase activity assessed as consumption of inorganic phosphate at 10 uM by PNP-based absorbance assay relative to control; values are per cent of control
[12] = molecular target: DNA gyrase subunit B (Staphylococcus aureus) (UniProt P0A0K8); experiment: Inhibition of Staphylococcus aureus DNA gyrase subunit B ATPase activity assessed as consumption of inorganic phosphate at 300 uM by PNP-based absorbance assay relative to control; values are per cent of control
[13] = molecular target: DNA gyrase subunit B (Staphylococcus aureus) (UniProt P0A0K8); experiment: Inhibition of Staphylococcus aureus DNA gyrase subunit B ATPase activity assessed as consumption of inorganic phosphate at 100 uM by PNP-based absorbance assay relative to control; values are per cent of control
[14] = molecular target: T1, DNA gyrase (Staphylococcus aureus); experiment: Inhibition of Staphylococcus aureus DNA gyrase-mediated supercoiling of relaxed DNA using N0471S as substrate at 160 uM after 30 mins by using […] staining-based agarose gel electrophoresis; assay type: protein-complex assay

COc1ccc(N(CC(=O)Nc2ccccc2C(N)=O)S(=O)(=O)c2ccccc2)c(OC)c1
MIC [1]: 250 µg/mL (≈ 532 µM) | MIC [2]: 62.5 µg/mL (≈ 133 µM)

COc1cc([C@H]2OC[C@H]3[C@H]2CO[C@@H]3c2ccc(O)c(OC)c2)ccc1O
MIC [1]: 500 µg/mL (≈ 1400 µM) | MIC [2]: 62.5 µg/mL (≈ 174 µM)

O=C1C[C@H](c2cccc(O)c2)Nc2ccc3ccccc3c21
MIC [1]: 62.5 µg/mL (≈ 216 µM) | MIC [2]: 62.5 µg/mL (≈ 216 µM)

C/C(=N\NC(=O)c1nnn(-c2nonc2N)c1CN1CCc2ccccc21)c1ccc(O)cc1O
MIC [1]: 525 µg/mL (≈ 1100 µM) | MIC [2]: 525 µg/mL (≈ 1100 µM)

NC(=O)NC(=O)COC(=O)c1ccc(Cl)c(S(=O)(=O)N(Cc2ccccc2)c2ccc(Cl)cc2)c1
MIC [1]: 500 µg/mL (≈ 932 µM) | MIC [2]: 125 µg/mL (≈ 233 µM)

Cc1cccc(NS(=O)(=O)c2cc(C(N)=O)ccc2Cl)c1C
MIC [1]: 62.5 µg/mL (≈ 184 µM) | MIC [2]: 62.5 µg/mL (≈ 184 µM)

O=C(O)C[C@H](C(=O)O)N1C(=O)/C(=C\c2ccc(-c3cc(Cl)ccc3Cl)o2)SC1=S
MIC [3]: 159 µM (≈ 75.1 µg/mL) | MIC [4]: 159 µM (≈ 75.1 µg/mL) | MIC [5]: > 100 µg/mL | inhibition [6]: Active | inhibition [7]: inactive | inhibition [8]: inactive | IC50 [9]: 30 µM | residual activity [10]: 66% | residual activity [11]: 84% | residual activity [12]: 23% | residual activity [13]: 23%

O=C(O)C[C@H](c1ccccc1)N1C(=O)/C(=C/c2ccccc2Cl)SC1=S
MIC [3]: 31 µM (≈ 12.5 µg/mL) | MIC [4]: 46.5 µM (≈ 18.8 µg/mL) | MIC [5]: > 100 µg/mL | inhibition [7]: inactive | inhibition [8]: inactive | IC50 [9]: 100 µM | residual activity [10]: 76% | residual activity [11]: 84% | residual activity [12]: 25% | residual activity [13]: 52%

COc1ccc(C(=O)C2=C(O)C(=O)N(CCc3c[nH]c4ccccc34)[C@@H]2c2ccccc2Cl)cc1
MIC [1]: 253 µg/mL (≈ 520 µM) | MIC [2]: 253 µg/mL (≈ 520 µM)

CCc1ccccc1N1C(=O)/C(=C/c2cccc(O)c2)SC1=S
MIC [3]: 13.5 µM (≈ 4.61 µg/mL) | MIC [4]: 27 µM (≈ 9.22 µg/mL) | MIC [5]: > 100 µg/mL | inhibition [14]: Active | inhibition [8]: inactive

CO[C@@H]1[C@@H](OC(N)=O)[C@@H](O)[C@H](Oc2ccc3c(O)c(NC(=O)c4ccc(O)c(CC=C(C)C)c4)c(=O)oc3c2C)OC1(C)C [NOVOBIOCIN]
MIC [3]: < 1.27 µM | MIC [4]: < 1.27 µM | MIC [1]: < 1.95 µg/mL | inhibition [8]: inactive

CC(=O)Oc1ccc([C@@H]2Oc3nc(SCc4ccccc4Cl)nnc3-c3ccccc3N2C(C)=O)cc1Br
MIC [1]: 512 µg/mL (≈ 838 µM) | MIC [2]: 512 µg/mL (≈ 838 µM)

COc1cc([C@@H]2C3=C(CCCC3=O)Nc3[nH]c(SCc4ccccc4Cl)nc(=O)c32)ccc1O
MIC [1]: 500 µg/mL (≈ 1010 µM) | MIC [2]: 500 µg/mL (≈ 1010 µM)

CCOC(=O)C1=c2s/c(=C/c3ccccc3I)c(=O)n2C(N)=C(C#N)[C@@H]1c1ccccc1I
MIC [1]: 264 µg/mL (≈ 387 µM) | MIC [2]: 264 µg/mL (≈ 387 µM)

COc1cccc([C@@H]2Nc3c(ccc(C(=O)O)c3C)[C@H]3C=CC[C@H]32)c1
MIC [1]: 125 µg/mL (≈ 373 µM) | MIC [2]: 62.5 µg/mL (≈ 186 µM)

Cc1cccc([C@]2(C)CC(C)(C)N(C(=O)CSc3nc[nH]n3)c3ccccc32)c1
MIC [1]: 500 µg/mL (≈ 1230 µM) | MIC [2]: 125 µg/mL (≈ 307 µM)
